Laboratory results from ChEMBL document CHEMBL1201862, “PubChem BioAssay data set” (2004).
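Where inhibition never reached the appropriate level, the endpoint shown equals the highest concentration tested. Otherwise, values were interpolated linearly from a five-concentration, 48-hour dose response in 96-well plates. At the GI50, growth is halved.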 Active and inactive are the calls of the source. Cut-off read from the data, not from the text of the source: active = GI50 up to about 1.1 µM and inactive = higher.

How the values were obtained:
Assay in all cases: NCI-60 cell line screen, 48 h
NCI/ADR-RES = system: NCI/ADR-RES
HT-29 = system: HT-29
SNB-75 = system: SNB-75
CCRF-CEM = system: CCRF-CEM
Hs-578T = system: Hs-578T
K562 = system: K562
TK-10 = system: TK-10
CAKI-1 = system: CAKI-1
SK-MEL-28 = system: SK-MEL-28
T47D = system: T47D
UACC-257 = system: UACC-257
BT-549 = system: BT-549
KM12 = system: KM12
IGROV-1 = system: IGROV-1
NCI-H226 = system: NCI-H226
HL-60 = system: HL-60
SK-OV-3 = system: SK-OV-3
RXF 393 = system: RXF 393
SF-295 = system: SF-295

| Structure (SMILES) | GI50 (NCI/ADR-RES) | GI50 (HT-29) | GI50 (SNB-75) | GI50 (CCRF-CEM) | GI50 (Hs-578T) | GI50 (K562) | GI50 (TK-10) | GI50 (CAKI-1) | GI50 (SK-MEL-28) | GI50 (T47D) | GI50 (UACC-257) | GI50 (BT-549) | GI50 (KM12) | GI50 (IGROV-1) | GI50 (NCI-H226) | GI50 (HL-60) | GI50 (SK-OV-3) | GI50 (RXF 393) | GI50 (SF-295) |
| --- | --- | --- | --- | --- | --- | --- | --- | --- | --- | --- | --- | --- | --- | --- | --- | --- | --- | --- | --- |
| O=C(/C=C/c1ccc2c(c1)OCO2)c1ccccc(=O)c1O | 2.08 µM (inactive) | 9.51 µM (inactive) | 12.3 µM (inactive) | 0.0376 µM (active) | 7.8 µM (inactive) | 6.84 µM (inactive) | 18.8 µM (inactive) | 5.98 µM (inactive) | 21.2 µM (inactive) | 20.9 µM (inactive) | 17.9 µM (inactive) | 15.7 µM (inactive) | 8.43 µM (inactive) | 5.77 µM (inactive) | 35.6 µM (inactive) | – | – | – | – |
| CC1(C)CC(=O)c2c(nc3c(ccc4ccccc43)c2-c2ccc(NC(=O)CCCCC(=O)Nc3ccc(-c4c5c(nc6c4ccc4ccccc46)CC(C)(C)CC5=O)cc3)cc2)C1 | 23.8 µM (inactive) | 22.5 µM (inactive) | 16.3 µM (inactive) | 20.7 µM (inactive) | 32.1 µM (inactive) | 30.8 µM (inactive) | 48.6 µM (inactive) | 35.3 µM (inactive) | 34 µM (inactive) | 22.6 µM (inactive) | 39.2 µM (inactive) | – | 20.7 µM (inactive) | 14 µM (inactive) | 15.2 µM (inactive) | 29.6 µM (inactive) | 37.2 µM (inactive) | 78.3 µM (inactive) | 19.6 µM (inactive) |
| CN(C)CCNC(=O)Cn1cnc2cccc([N+](=O)[O-])c2c1=O | > 100 µM (inactive) | > 100 µM (inactive) | – | > 100 µM (inactive) | > 100 µM (inactive) | > 100 µM (inactive) | > 100 µM (inactive) | > 100 µM (inactive) | > 100 µM (inactive) | > 100 µM (inactive) | > 100 µM (inactive) | – | > 100 µM (inactive) | > 100 µM (inactive) | > 100 µM (inactive) | > 100 µM (inactive) | > 100 µM (inactive) | > 100 µM (inactive) | > 100 µM (inactive) |
| NC(=O)c1nc(-c2ccc(Cl)c(Cl)c2)nc2ccccc12 | – | > 100 µM (inactive) | 2.68 µM (inactive) | > 100 µM (inactive) | – | > 31.6 µM (inactive) | 22.6 µM (inactive) | > 94.4 µM (inactive) | – | – | > 29.1 µM (inactive) | – | > 100 µM (inactive) | > 100 µM (inactive) | 18 µM (inactive) | > 100 µM (inactive) | 12.1 µM (inactive) | 12.5 µM (inactive) | – |
| COc1cc2c(cc1OC)C1CCc3ccccc3CN1CC2 (stereo unspecified) | > 100 µM (inactive) | > 100 µM (inactive) | > 100 µM (inactive) | > 100 µM (inactive) | > 100 µM (inactive) | > 100 µM (inactive) | > 100 µM (inactive) | > 100 µM (inactive) | > 100 µM (inactive) | > 100 µM (inactive) | > 100 µM (inactive) | – | > 100 µM (inactive) | > 100 µM (inactive) | > 100 µM (inactive) | > 100 µM (inactive) | > 100 µM (inactive) | > 100 µM (inactive) | > 100 µM (inactive) |
| CCCC/N=C(/c1ccccc1)N1CCOCC1 | > 100 µM (inactive) | > 100 µM (inactive) | 1.25 µM (inactive) | > 100 µM (inactive) | 87.1 µM (inactive) | > 100 µM (inactive) | > 100 µM (inactive) | > 100 µM (inactive) | > 100 µM (inactive) | – | > 100 µM (inactive) | > 100 µM (inactive) | > 100 µM (inactive) | > 100 µM (inactive) | > 100 µM (inactive) | > 100 µM (inactive) | > 100 µM (inactive) | > 100 µM (inactive) | > 100 µM (inactive) |
| O=C(O)CCC(/N=C(\C(=N\C(CCC(=O)O)C(=O)O)c1ccccc1)c1ccccc1)C(=O)O (stereo unspecified) | > 100 µM (inactive) | – | > 100 µM (inactive) | – | > 100 µM (inactive) | > 100 µM (inactive) | > 100 µM (inactive) | – | > 100 µM (inactive) | > 100 µM (inactive) | > 100 µM (inactive) | 90.2 µM (inactive) | > 100 µM (inactive) | – | > 100 µM (inactive) | – | > 100 µM (inactive) | > 100 µM (inactive) | > 100 µM (inactive) |
| C=C(Br)C(Br)(CCl)CCC(Cl)C(C)C.C=C(Cl)C(Br)(CCl)CCC(Cl)C(C)C (stereo unspecified) | 1.94 µM (inactive) | 1.41 µM (inactive) | 0.889 µM (active) | 0.254 µM (active) | 2.49 µM (inactive) | 0.684 µM (active) | 2.14 µM (inactive) | 2.81 µM (inactive) | 1.77 µM (inactive) | – | 1.67 µM (inactive) | 1.7 µM (inactive) | 1.83 µM (inactive) | 1.88 µM (inactive) | 3.69 µM (inactive) | 0.413 µM (active) | 2.3 µM (inactive) | 2.18 µM (inactive) | 6.92 µM (inactive) |
